This note sets out measurements from patent publication US20100093722A1, “HETEROARYL AND PHENYL SUBSTITUTED THIENO[2,3-d]PYRIMIDINES AND THEIR USE AS ADENOSINE A2a RECEPTOR ANTAGONISTS” (priority 2008, published 2010).

pKi: −log10 of the molar value.

Assay [1] has as its target T1, human adenosine A2a receptor (Homo sapiens, UniProt P29274).
T1 construct: expressed in transfected cells; host or cells: CHO-K1
Briefly: Adenosine A2a Receptor Functional Assay (A2AGAL2). Type of assay: cell-based. To be noted: CHO-K1 cells overexpressing human A2a, cAMP inducible beta-galactosidase reporter, 15 nM NECA agonist challenge. As to the method: Adenosine A2a Receptor Functional Assay (A2AGAL2)
To initiate the functional assay, cryopreserved CHO-K1 cells overexpressing the human adenosine A2a receptor and containing a cAMP inducible beta-galactosidase reporter gene were thawed, centrifuged, DMSO containing media removed, and then seeded with fresh culture media into clear 384-well tissue culture treated plates (BD #353961) at a concentration of 10K cells/well. Prior to assay, these plates were cultured for two days at 37° C., 5% CO2, 90% Rh. On the day of the functional assay, culture media was removed and replaced with 45 uL assay medium (Hams/F-12 Modified (Mediatech #10-080CV) supplemented w/0.1% BSA). Test compounds were diluted and 11 point curves created at a 1000× concentration in 100% DMSO. Immediately after addition of assay media to the cell plates, 50 nL of the appropriate test compound antagonist or agonist control curves were added to cell plates using a Cartesian Hummingbird. Compound curves were allowed to incubate at room temperature on cell plates for approximately 15 minutes before addition of a 15 nM NECA (Sigma E2387) agonist challenge (5 uL volume). A control curve of NECA, a DMSO/Media control, and a single dose of Forskolin (Sigma F3917) were also included on each plate. After additions, cell plates were allowed to incubate at 37° C., 5% CO2, 90% Rh for 5.5-6 hours. After incubation, media was removed, and cell plates were washed 1× 50 uL with DPBS w/o Ca & Mg (Mediatech 21-031-CV). Into dry wells, 20 uL of 1× Reporter Lysis Buffer (Promega E3971 (diluted in dH2O from 5× stock)) was added to each well and plates frozen at −20° C. overnight. For β-galactosidase enzyme calorimetric assay, plates were thawed out at room temperature and 20 μL 2× assay buffer (Promega) was added to each well. Color was allowed to develop at 37° C., 5% CO2, 90% Rh for 1-1.5 h or until reasonable signal appeared. The calorimetric reaction was stopped with the addition of 60 μL/well 1M sodium carbonate. Plates were counted at 405 nm on a SpectraMax Microplate Reader (Molecular Devices). Data was analyzed in Microsoft Excel and IC/EC50 curves were fit using a standardized macro.

The target in assay [2] is T2, human A2a adenosine receptor (Homo sapiens, UniProt P29274).
T2 construct: purchased PerkinElmer RB-HA2a; host or cells: HEK293 plasma membrane
Nature of the assay: Ligand Binding Assay for Adenosine A2a Receptor (A2A-B). To be noted: plasma membrane of HEK293 cells containing human A2a receptor, radioligand [3H]CGS21680. How it is done: Ligand Binding Assay for Adenosine A2a Receptor
Ligand binding assay of adenosine A2a receptor was performed using plasma membrane of HEK293 cells containing human A2a adenosine receptor (PerkinElmer, RB-HA2a) and radioligand [^3H]CGS21680 (PerkinElmer, NET1021). Assay was set up in 96-well polypropylene plate in total volume of 200 μL by sequentially adding 20 μL 1:20 diluted membrane, 130 μL assay buffer (50 mM Tris.HCl, pH 7.4 10 mM MgCl2, 1 mM EDTA) containing [^3H] CGS21680, 50 μL diluted compound (4×) or vehicle control in assay buffer. Nonspecific binding was determined by […] NECA. Reaction was carried out at room temperature for 2 hours before filtering through 96-well GF/C filter plate pre-soaked in 50 mM Tris.HCl, pH 7.4 containing 0.3% polyethylenimine. Plates were then washed 5 times with cold 50 mM Tris.HCl, pH 7.4, dried and sealed at the bottom. Microscintillation fluid 30 μL was added to each well and the top sealed. Plates were counted on Packard Topcount for [^3H]. Data was analyzed in Microsoft Excel and GraphPad Prism programs. (Varani, K.; Gessi, S.; Dalpiaz, A.; Borea, P. A. British Journal of Pharmacology, 1996, 117, 1693)

In assay [3] the target is T3, human adenosine A1 receptor (Homo sapiens, UniProt P30542).
T3 construct: expressed in transfected cells; host or cells: CHO-K1
T3 sequence (P30542 1-326): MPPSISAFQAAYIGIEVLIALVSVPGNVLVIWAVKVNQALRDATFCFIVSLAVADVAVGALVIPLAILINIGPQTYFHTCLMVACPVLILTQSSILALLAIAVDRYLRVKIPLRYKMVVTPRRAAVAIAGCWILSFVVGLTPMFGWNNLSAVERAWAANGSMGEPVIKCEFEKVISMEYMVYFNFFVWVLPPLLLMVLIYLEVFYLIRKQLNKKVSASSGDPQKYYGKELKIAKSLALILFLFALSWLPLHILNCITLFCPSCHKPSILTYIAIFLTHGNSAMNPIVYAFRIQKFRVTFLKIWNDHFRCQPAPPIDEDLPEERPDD
Nature of the assay: Adenosine A1 Receptor Functional Assay (A1GAL2). Type of assay: cell-based. The settings on record: CHO-K1 cells overexpressing human A1, cAMP inducible beta-galactosidase reporter, 4 nM r-PIA/1 uM Forskolin challenge. How it is done: Adenosine A1 Receptor Functional Assay (A1GAL2)
To initiate the functional assay, cryopreserved CHO-K1 cells overexpressing the human adenosine A1 receptor and containing a cAMP inducible beta-galactosidase reporter gene were thawed, centrifuged, DMSO containing media removed, and then seeded with fresh culture media into clear 384-well tissue culture treated plates (BD #353961) at a concentration of 10K cells/well. Prior to assay, these plates were cultured for two days at 37+ C., 5% CO2, 90% Rh. On the day of the functional assay, culture media was removed and replaced with 45 uL assay medium (Hams/F-12 Modified (Mediatech #10-080CV) supplemented w/0.1% BSA). Test compounds were diluted and 11 point curves created at a 1000× concentration in 100% DMSO. Immediately after addition of assay media to the cell plates, 50 nL of the appropriate test compound antagonist or agonist control curves were added to cell plates using a Cartesian Hummingbird. Compound curves were allowed to incubate at room temperature on cell plates for approximately 15 minutes before addition of a 4 nM r-PIA (Sigma P4532)/1 uM Forskolin (Sigma F3917) agonist challenge (5 uL volume). A control curve of r-PIA in 1 uM Forskolin, a DMSO/Media control, and a single dose of Forskolin were also included on each plate. After additions, cell plates were allowed to incubate at 37° C., 5% CO2, 90% Rh for 5.5-6 hours. After incubation, media was removed, and cell plates were washed 1× 50 uL with DPBS w/o Ca & Mg (Mediatech 21-031-CV). Into dry wells, 20 uL of 1× Reporter Lysis Buffer (Promega E3971 (diluted in dH2O from 5× stock)) was added to each well and plates frozen at −20° C. overnight. For β-galactosidase enzyme calorimetric assay, plates were thawed out at room temperature and 20 μL 2× assay buffer (Promega) was added to each well. Color was allowed to develop at 37° C., 5% CO2, 90% Rh for 1-1.5 h or until reasonable signal appeared. The calorimetric reaction was stopped with the addition of 60 μL/well 1M sodium carbonate. Plates were counted at 405 nm on a SpectraMax Microplate Reader (Molecular Devices). Data was analyzed in Microsoft Excel and IC/EC50 curves were fit using a standardized macro.

T1 sequence (P29274 whole entry): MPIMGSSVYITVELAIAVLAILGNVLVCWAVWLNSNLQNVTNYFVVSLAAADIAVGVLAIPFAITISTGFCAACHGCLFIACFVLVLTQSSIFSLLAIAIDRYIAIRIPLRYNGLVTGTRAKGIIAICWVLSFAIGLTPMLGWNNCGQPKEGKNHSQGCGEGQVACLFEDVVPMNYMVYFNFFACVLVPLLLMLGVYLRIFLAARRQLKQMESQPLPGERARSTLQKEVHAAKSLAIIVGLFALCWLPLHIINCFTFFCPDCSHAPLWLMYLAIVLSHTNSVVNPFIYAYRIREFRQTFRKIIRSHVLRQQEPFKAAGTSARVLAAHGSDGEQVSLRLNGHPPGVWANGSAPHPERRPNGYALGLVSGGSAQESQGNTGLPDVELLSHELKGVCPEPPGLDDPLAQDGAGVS
T2 sequence (P29274 whole entry): as above

One may read the pKi as the Ki on a negative log10 scale, so that one unit is a factor of ten. Consider `N#Cc1cccc(-c2nc(N)c3cc(C(O)c4ccccn4)sc3n2)c1` (stereo not drawn) [Example 15, 3-[4-Amino-6-(hydroxy-pyridin-2-yl-methyl)-thieno[2,3-d]pyrimidin-2-yl]-benzonitrile], for which the negative-log Ki (pKi) in assay [1] was 8.30; in assay [2], 7.46; in assay [3], 6.82.

Take `N#Cc1cccc(-c2nc(N)c3cc(C(O)c4ccncc4Cl)sc3n2)c1` (stereo not drawn) [Example 21, 3-{4-Amino-6-[(3-chloro-pyridin-4-yl)-hydroxy-methyl]-thieno[2,3-d]pyrimidin-2-yl}-benzonitrile]: the pKi in assay [1] was 7.91; in assay [2] it was 7.36; in assay [3] it was 6.38.

Consider `N#Cc1cccc(-c2nc(N)c3cc(Cc4cccnc4Cl)sc3n2)c1` [Example 35, 3-[4-Amino-6-(2-chloro-pyridin-3-ylmethyl)-thieno[2,3-d]pyrimidin-2-yl]-benzonitrile], for which the figures for the pKi in assay [1], in assay [2] and in assay [3] were 7.94, 7.55 and 6.15, respectively.

`N#Cc1cccc(-c2nc(N)c3cc(C(O)c4cccnc4Cl)sc3n2)c1` (stereo not drawn) [Example 30, 3-{4-Amino-6-[(2-chloro-pyridin-3-yl)-hydroxy-methyl]-thieno[2,3-d]pyrimidin-2-yl}-benzonitrile]: the pKi is 7.79 in assay [1], 7.21 in assay [2] and 6.46 in assay [3].

As for `COc1ncccc1C(O)c1cc2c(N)nc(-c3cccc(C#N)c3)nc2s1` (stereo not drawn) [Example 9, 3-{4-Amino-6-[hydroxy-(2-methoxy-pyridin-3-yl)-methyl]-thieno[2,3-d]pyrimidin-2-yl}-benzonitrile], the negative logarithm of the Ki (pKi) in assay [1] is 8.03; in assay [2], 7.92; in assay [3], 6.77.

`N#Cc1cccc(-c2nc(N)c3cc(Cc4ncccc4F)sc3n2)c1` [Example 38, 3-[4-Amino-6-(3-fluoro-pyridin-2-ylmethyl)-thieno[2,3-d]pyrimidin-2-yl]-benzonitrile]: the negative logarithm of the Ki (pKi) in assay [1] was 8.85; in assay [2], 7.24; in assay [3], 7.52.

In the case of `COc1ncccc1Cc1cc2c(N)nc(-c3cccc(C#N)c3)nc2s1` [Example 10, 3-[4-Amino-6-(2-methoxy-pyridin-3-ylmethyl)-thieno[2,3-d]pyrimidin-2-yl]-benzonitrile], the negative-log Ki (pKi) in assay [1] was 7.84; in assay [2], 7.47; in assay [3], 6.99.

Take `COc1cccnc1C(O)c1cc2c(N)nc(-c3cccc(C#N)c3)nc2s1` (stereo not drawn) [Example 33, 3-{4-Amino-6-[hydroxy-(3-methoxy-pyridin-2-yl)-methyl]-thieno[2,3-d]pyrimidin-2-yl}-benzonitrile]: the negative logarithm of the Ki (pKi) in assay [1] was 8.35; in assay [2] it was 8.18; in assay [3], 7.07.

Turning to `COc1cccnc1Cc1cc2c(N)nc(-c3cccc(C#N)c3)nc2s1` [Example 34, 3-[4-Amino-6-(3-methoxy-pyridin-2-ylmethyl)-thieno[2,3-d]pyrimidin-2-yl]-benzonitrile], the results for the pKi in assay [1], in assay [2] and in assay [3] were 8.91, 7.70 and 7.58, respectively.
